These results are taken from US6001832A, “[1,2,4]triazolo[4,3-a]quinoxalinone derivatives, their preparation and use” (Novo Nordiskals, priority 1994, dated 1999).

One experiment deals with AMPA type receptors. The experiment can be described thus: 3H-AMPA Binding (Test 1). As to conditions: displacement of 50% of the specific binding of 3H-AMPA (5 nM); rat cerebral cortical membrane homogenate, 0° C., 30 min, pH 7.1. The procedure:
(§1) The pharmacological properties of the compounds of the present invention can be illustrated by determining their capability for displacing radioactively labelled 2-amino-3-hydroxy-5-methyl-4-isoxazolepropionic acid (AMPA) from the AMPA type receptors.
The displacement activity of the compounds may be shown by determining the IC50 value which represents the concentration (μM) which causes a displacement of 50% of the specific binding of ^3 H-AMPA.
^3 H-AMPA Binding (Test 1)
500 μl of thawed rat cerebral cortical membrane homogenate in Tris-HCl (30 mM), CaCl2 (2.5 mM) and KSCN (100 mM) pH 7.1 were incubated at 0° C. for 30 min. with 25 μl ^3 H-AMPA (5 nM final concentration) and the test compound and buffer. Nonspecific binding was determined by incubation with L-glutamic acid (600 μM final concentration). The binding reaction was terminated by adding 5 ml of ice-cold buffer followed by filtration through Whatman GF/C glass fibre filters and 2×5 ml wash with ice-cold buffer. Bound radioactivity was measured by scintillation counting. IC50 was determined by Hill analysis of at least four concentrations of test compound.

For experiment [1], the system named is quisqualic acid stimulated spreading depression in chicken retina. The experiment can be described thus: Spreading Depression (Test 2): quisqualic acid stimulated spreading depression in chicken retina. The format is cell-based. The conditions noted are these: Gallus gallus, 0.25 h; 50% maximal inhibition of quisqualate (1 μg/ml) stimulated spreading depression in chicken retina; 15 min incubation with test compound, 26° C. The procedure:
as §1
The antagonism is measured by determining the IC50 value which represents the concentration which produces a 50% maximal inhibition of quisqualic acid stimulated spreading depression in chicken retina.
Spreading Depression (Test 2)
Chicks (3-10 days old) were decapitated, the eyes enucleated and sectioned along the equatorial plane. […]
The eyes were initially incubated in normal P.S.S. for 15-30 min. and then transferred to P.S.S. containing quisqualate (1 μg/ml). […] The time taken for an S.D. to start in each eye was measured.
After a further 15 min. of incubation in normal P.S.S. the eyes were transferred to normal P.S.S. containing the test compound and incubated for 15 min. […] The time taken for an S.D. to start in each eye was measured again. The eyes were then placed back in normal P.S.S. and after 15 min. the time taken for S.D. to start was measured again, in order to assess the degree of recovery from any drug effects. […]

Molecules are shown by their SMILES.

In general, IC50 refers to the concentration that inhibits the measured activity by half. A high value points to lower potency.

For the molecule `Cc1cn(-c2cc3c(cc2C(F)(F)F)[nH]c(=O)c2nnc(CP(=O)(O)O)n23)c(-c2ccccc2)n1` [Example 2, 8-(4-Methyl-2-phenyl-1H-imidazol-1-yl)-1-phosphonomethyl-7-trifluoromethyl[1,2,4]triazolo[4,3-a]quinoxalin-4(5H)-one], the IC50 stood at 390 nM on AMPA type receptors and 400 nM in experiment [1].
